# Laboratory results: patent EP3572468B1, “CYANINE DYES AND THEIR USAGE FOR IN VIVO STAINING OF MICROORGANISMS” (PHILIPPS-UNIVERSITÄT MARBURG, priority 2018, dated 2019)
# Where “and” joins values, the source holds several entries; their conditions need not be identical. Equal values may be shown once. Entries after “also recorded” stand apart in the source; their conditions may differ.
# Experiments:
# [1] = system: double-stranded calf thymus DNA (dsDNACT); assay: Fluorescence titration with dsDNACT, binding affinity by DynaFit; conditions: 1 µM dye in 10 mM Tris pH 7.6 and 50 mM KCI, 20°C, emission at 647 nm, 1:1 binding model, read-out: binding affinity (KD, apparent dissociation constant)
# Procedure: (§1) Fluorescence measurements and tritations were performed on a Jasco FP-6500 spectrofluorometer equipped with a Thermo Haake WKL 26 water recirculator at 20°C. Unless otherwise noted, a 1400 µL fluorescence cuvette of HellmaAnalytics (104F-QS) was used and the measurements were performed with the following settings: increment: 1.0 nm; integration time: 0.2 s; speed: 500 nm/min; sensitivity: medium; excitation slit width: 3 nm; emission slit width: 3 nm; excitation wavelength 610 nm. The emission spectra were recorded from 625 to 750 nm at 20°C. From all spectra, the corresponding background signal was substracted. […] Table 1: Binding sites and sequences of DNA hairpins, which were used for fluorescence titrations experiments.
# (§2) All fluorescence titrations followed the same procedure: to 1 mL of 1 µM solution of corresponding cyanine dye derivative in 10 mM Tris pH 7.6 and 50 mM KCI aliquots of a stock solution of the corresponding annealed DNA (dsDNAhAT and dsDNAhGC = 435 µM; dsDNACT = 0.65 mM) were successively added and the fluorescence spectra were recorded in a range from 625-750 nm after 1 min of each addition. […] The fluorescence emission plotted is the resulting mean of the three independent measurements. […]
# (§3) All binding affinities were determined by fitting the obtained experimental data in the DynaFit 4.0 software. […]
# [2] = target: dsDNAhGC (double-stranded DNA hairpin with the consensus sequence GGCCC); assay: Fluorescence titration with hairpin dsDNAhGC, binding affinity by DynaFit; conditions: 1 µM dye in 10 mM Tris pH 7.6 and 50 mM KCI, 20°C, emission at 650 nm, 1:1 binding model, read-out: binding affinity (KD, apparent dissociation constant)
# Procedure: as §1, §2, §3
# [3] = system: Escherichia coli (E. coli) NEB5α; assay: Bacteria culture and staining: growth and FACS labeling of E. coli; type: cell-based
# Procedure: Escherichia coli (E. coli) NEB5α (New England Biolabs) and antibiotic-resistant and -sensitive Klebsiella pneumoniae (K. pneumoniae) were cultured in Luria-Bertani (LB) solid medium (LB-Agar) overnight at 37°C. The source of the K. pneumoniae strands is of no relevance to the invention. The invention may be applied to all types of microorganisms (bacteria, viri, fungi etc.) or other cells, either contained within a sample or isolated from a sample. For staining, growth curve analysis and replating experiments bacteria were suspended in LB liquid medium at an OD600 nm of 1.0 and 800 µL were transferred into a culture tube containing 7.2 mL of LB liquid medium supplemented with DMSO or candidate dyes (2.5 µM) final concentration). Density of bacterial cultures was measured using an Ultrospec 10 Cell Density Meter with 600 nm LED source (Amersham Biosciences). For bacterial re-plating experiments bacteria were sampled at OD600 nm = 2.0 and 5 µL of indicated dilutions in LB-medium were spotted onto LB-agar plates (Fig. 5) or 100 µL were plated onto LB-agar plates followed by incubation at 37°C until colonies became visible.
# Bacteria and macrophages were washed with PBS prior to flow cytometry and analysed using a Guava easyCyte flow cytometer (Millipore). FCS3.0 files were analysed using Flowing Software (http://flowingsoftware.btk.fi/). Cells were first gated in the forward- / side-scatter plot to exclude debries, followed by quadrant gating in plots using the fluorescence channels as shown above. For discrimination of live/dead cell discrimination cells in PBS were supplemented with 0.4 µL/mL propidium-iodide (5 mg/ml solution) followed by 5 min incubation on ice. Propidium iodide signal was recorded in the yellow channel.
# [4] = Fluorescence quantum yield, dye alone; type: physicochemical; conditions: dye alone, without dsDNACT; 10 mM Tris pH 7.6 and 50 mM KCI, 25°C; reference dye Alexa Fluor 647
# Procedure: Fluorescence intensity values for the quantum yields were determined on an ISS PC1 spectrofluorometer with an ISS 11650 lamp connected to an ISS Simpson model 109 and an ISS 80011 photomulitplier connected to a MGW Lauda K2R D and an Amherst Scientific Corp. 7600F for cooling. A VWR Refrigerated Circ 1160S was connected for the cooling of the cuvette chamber. It was measured in a 1400 µL fluorescence cuvette of HellmaAnalytics (104F-QS) at 25°C using the following settings: increment: 2.0 nm; integration time: 1.0 s; excitation slit width: 0.25 mm; emission slit width: 0.5 mm; excitation wavelength 590 nm. The emission spectra were recorded from 610 to 750 nm. From all spectra the corresponding background signal was substracted. Absorbance values were measured on a Jasco V-650 UV-Vis Spectrophotometer equipped with a Jasco PAC-743 temperature controlled cell holder and a Julabo F250 cooling system. UV-Vis titration measurements were performed in a 1400 µL quarz cuvette with a pathlength of 1 cm at 25°C using the following settings: increment: 1.0 nm; bandwidth: 1.0 nm; scanning speed: 1000 nm/min; scanning mode: continuous. From all values, the corresponding background signal was subtracted. The values for the reference compounds were measured in duplicates, the ones for 6-TramTO-3 with and without dsDNACT in triplicates. The quantum yields of 6-TramTO-3 with (30 eq.) and without dsDNACT were determined in 10 mM Tris pH 7.6 and 50 mM KCI. All measurement were following the procedure of Horiba and using the equation E1: ΦX = ΦST ((GradX)/(GradST)) ((((ηX))^2)/(((ηST))^2)) [formula] where Φ = fluorescence quantum yield, η = refractive index of the used solvent, Grad = gradient from the plot of integrated fluorescence intensity vs. absorbance and the subscripts ST and X denote standard and tested sample. […]
# Table 3: Determined slopes and corresponding quantum yields for the two reference compounds Alexa Flour® 647 and Atto 655 and for 6-TramTO-3 with and without dsDNACT.
smiles,measurement,setting,value
"CC[n+]1ccc(/C=C/C=C2\Sc3ccccc3N2CCCCCCn2cc(CN)nn2)c2ccccc21.[I-] [6-TramTO-3, 4-((1E,3Z)-3-(3-(6-(4-(aminomethyl)-1H-1,2,3-triazol-1-yl)hexyl)benzo[d]thiazol-2(3H)-ylidene)prop-1-en-1-yl)-1-ethylquinolin-1-ium iodide]",Kd,[1],19.5 ± 2.6 µM
same,Kd,[2],0.104 ± 0.054 µM
same,bacterial growth in presence of dye,"[3]; 2.5 µM dye in LB medium, OD600 over time, liquid and solid medium",fully compatible with normal bacterial growth; also recorded: grew normally
same,fluorescent labeling of live bacteria (FACS),"[3]; 2.5 µM dye in culture medium, FACS at mid-exponential growth phase (OD600 = 2.0)",successfully fluorescently labeled
same,quantum yield (ΦF),[4],0.005 and 0.0052
